The values that follow come from patent US20110118283A1, “Substituted Pyrrolidine-2-Carboxamides” (priority 2009, published 2011).

The term IC50 denotes the midpoint of a concentration-inhibition curve. Low values mean greater potency, high ones weaker potency.

The assay deals with MDM2 (Homo sapiens, UniProt Q00987). Kind of assay: HTRF assay of inhibition of the p53-MDM2 interaction. The format is binding. The settings on record: GST-MDM2 / biotinylated p53 peptide, bsa 0.02%. On the procedure: The ability of the compounds to inhibit the interaction between p53 and MDM2 proteins was measured by an HTRF (homogeneous time-resolved fluorescence) assay in which recombinant GST-tagged MDM2 binds to a peptide that resembles the MDM2-interacting region of p53 (Lane et al.). Binding of GST-MDM2 protein and p53-peptide (biotinylated on its N-terminal end) is registered by the FRET (fluorescence resonance energy transfer) between Europium (Eu)-labeled anti-GST antibody and streptavidin-conjugated Allophycocyanin (APC).
Chain of MDM2 (Q00987 whole entry, species assumed): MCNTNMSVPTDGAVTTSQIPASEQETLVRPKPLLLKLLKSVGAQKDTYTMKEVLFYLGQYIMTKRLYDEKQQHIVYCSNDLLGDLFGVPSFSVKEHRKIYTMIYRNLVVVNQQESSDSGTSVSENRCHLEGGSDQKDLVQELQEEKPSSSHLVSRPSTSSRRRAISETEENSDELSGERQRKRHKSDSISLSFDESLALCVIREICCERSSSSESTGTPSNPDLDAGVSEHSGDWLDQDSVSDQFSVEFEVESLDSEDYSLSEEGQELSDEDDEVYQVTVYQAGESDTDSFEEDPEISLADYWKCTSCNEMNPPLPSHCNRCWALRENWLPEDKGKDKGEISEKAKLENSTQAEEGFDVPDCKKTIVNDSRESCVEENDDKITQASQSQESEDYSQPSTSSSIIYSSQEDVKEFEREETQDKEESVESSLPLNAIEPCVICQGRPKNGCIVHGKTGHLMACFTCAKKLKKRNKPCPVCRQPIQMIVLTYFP
[…] Add 10 uL diluted compounds (1:5 dilution in reaction buffer) to each well, mix by shaking. Add 20 uL biotinylated p53 peptide (180 nM working solution) in reaction buffer to each well and mix on shaker. Incubate at 37° C. for 1 h. Add 20 uL streptavidin-APC and Eu-anti-GST antibody mixture (6 nM Eu-anti-GST and 60 nM streptavidin-APC working solution) in TBS buffer with 0.2% BSA, shake at room temperature for 30 minutes and read using a TRF-capable plate reader at 665 and 615 nm (Victor 5, Perkin ElmerWallac). If not specified, the reagents were purchased from Sigma Chemical Co.
Molecule `COC(=O)c1ccc(NC(=O)[C@@H]2N[C@@H](CC(C)(C)C)[C@](C#N)(c3ccc(Br)cn3)[C@H]2c2cccc(Cl)c2F)cc1` (racemic) [Example 34, rac-4-{[(2R,3S,4S,5S)-4-(5-bromo-pyridin-2-yl)-3-(3-chloro-2-fluoro-phenyl)-4-cyano-5-(2,2-dimethyl-propyl)-pyrrolidine-2-carbonyl]-amino}-benzoic acid methyl ester] had an IC50 of 201 nM. Take `CC(C)(C)C[C@@H]1N[C@@H](C(=O)NCC[C@H](O)CO)[C@H](c2cccc(Cl)c2)[C@@]1(C#N)c1ccc(Cl)nc1` (mixture of isomers) [Example 44, rac-(2R,3R,4R,5S)-3-(3-chloro-phenyl)-4-(6-chloro-pyridin-3-yl)-4-cyano-5-(2,2-dimethyl-propyl)-pyrrolidine-2-carboxylic acid ((S)-3,4-dihydroxy-butyl)-amide]: the IC50 is 61 nM. With `CC(C)(C)C[C@@H]1N[C@@H](C(=O)NCC[C@H](O)CO)[C@H](c2cccc(Cl)c2)[C@@]1(C#N)c1cccnc1` (mixture of isomers) [Example 39, rac-(2R,3R,4R,5S)-3-(3-chloro-phenyl)-4-cyano-5-(2,2-dimethyl-propyl)-4-pyridin-3-yl-pyrrolidine-2-carboxylic acid ((S)-3,4-dihydroxy-butyl)-amide] the figure was 1970 nM; with `CC(C)(C)C[C@@H]1N[C@@H](C(=O)NCC[C@H](O)CO)[C@H](c2cccc(Cl)c2)[C@@]1(C#N)c1cc(Br)cs1` (mixture of isomers) [Example 7, rac-(2R,3R,4R,5S)-4-(4-bromo-thiophen-2-yl)-3-(3-chloro-phenyl)-4-cyano-5-(2,2-dimethyl-propyl)-pyrrolidine-2-carboxylic acid ((S)-3,4-dihydroxy-butyl)-amide], 5860 nM. The molecule `CC(C)(C)C[C@@H]1N[C@@H](C(=O)NCC[C@H](O)CO)[C@H](c2cccc(Cl)c2F)[C@@]1(C#N)c1ncc(Cl)cc1F` (mixture of isomers) [Example 25, rac-(2R,3S,4S,5S)-3-(3-chloro-2-fluoro-phenyl)-4-(5-chloro-3-fluoro-pyridin-2-yl)-4-cyano-5-(2,2-dimethyl-propyl)-pyrrolidine-2-carboxylic acid ((S)-3,4-dihydroxy-butyl)-amide] displayed an IC50 of 1230 nM.
